PubChem BioAssay (NCI)
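Protocol summary: plate cells (96-well), add compound at 5 concentrations, incubate 48 h, interpolate endpoints linearly. The concentration for 50% growth inhibition is given as GI50. TGI: total growth inhibition.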

How the values were obtained:
Experiment in all cases: NCI tumour cell line growth inhibition, 48 h
[1] = tested on: SNB-75 CNS
[2] = tested on: SF-539 CNS
[3] = tested on: M14 melanoma
[4] = tested on: SK-MEL-28 melanoma
[5] = tested on: HOP-92 NSCLC
[6] = tested on: NCI-H23 lung
[7] = tested on: OVCAR-3 ovarian
[8] = tested on: OVCAR-5 ovarian
[9] = tested on: CAKI-1 renal
[10] = tested on: RXF 393 renal

Row | SMILES | GI50 [1] | TGI [1] | GI50 [2] | TGI [2] | GI50 [3] | TGI [3] | GI50 [4] | TGI [4] | GI50 [5] | TGI [5] | GI50 [6] | TGI [6] | GI50 [7] | TGI [7] | GI50 [8] | TGI [8] | GI50 [9] | TGI [9] | GI50 [10] | TGI [10]
1 | COc1ccc(Nc2c3ccccc3nc3occ(Cl)c23)cc1 | 0.0908 µM | > 100 µM | < 0.0167 µM | 1.39 µM | 0.0287 µM | 19.5 µM | 0.0265 µM | 21.1 µM | 0.0165 µM | 7.17 µM | 0.0549 µM | 28.8 µM | < 0.01 µM | < 0.0166 µM | 0.269 µM | > 100 µM | < 0.01 µM | 16.3 µM |  | 
2 | Cc1ccc(S(=O)(=O)NCCNc2nccc(-c3c(-c4ccc(F)cc4)nc4sccn34)n2)cc1 | 2.65 µM | 15 µM | 12.3 µM | 31 µM |  |  |  |  |  |  | 7.14 µM | 70.9 µM |  |  | > 100 µM | > 100 µM |  |  | 4.02 µM | 29.4 µM
3 | Cc1cc(S(=O)(=O)N/N=C(\Sc2cc(Cl)c(C)cc2S(N)(=O)=O)c2ccc(Cl)cc2)c(Cl)cc1Cl |  |  | 28.6 µM | 61.5 µM | > 100 µM | > 100 µM | > 100 µM | > 100 µM | 47.6 µM | > 100 µM | 26.7 µM | 67.9 µM | 31.1 µM | > 100 µM | > 100 µM | > 100 µM | 61.8 µM | > 100 µM | 54.8 µM | > 100 µM
4 | CC(=O)O[C@H](C[C@H](C(C)C)N(C)C(=O)[C@@H](NC(=O)[C@H]1CCCCN1C)C(C)C)c1nc(C(=O)N[C@@H](Cc2ccccc2)C[C@H](C)C(=O)O)c(CCOCc2ccccc2)s1 | < 0.001 µM | 5.67 µM | < 0.001 µM | 0.00174 µM |  |  | 0.797 µM | > 10 µM | < 0.001 µM | > 10 µM | < 0.001 µM | > 10 µM | < 0.001 µM |  | < 0.001 µM | > 10 µM | < 0.001 µM | > 10 µM |  | 
5 | O=C(COc1ccc(/C=C2\CSc3ccccc3C2=O)cc1)Nc1nccs1 | 11.5 µM | 25.1 µM | 15 µM | 29.7 µM | 9.38 µM | 21.2 µM | 11.8 µM | 24.1 µM | 0.026 µM | 9.46 µM | 11.7 µM | 24.3 µM | 2.17 µM | 4.25 µM | 18.2 µM | 32.8 µM | 12.8 µM | 25.3 µM |  | 
6 | Cc1cc2c(cc1Cl)SC(=Nc1ccc(Cl)cc1)N(S(=O)(=O)c1ccccc1)S2(=O)=O |  |  | 1.03 µM | 3.53 µM | 12.6 µM | 27.6 µM | 12.2 µM | 63.5 µM | 5.39 µM | 26.1 µM | 1.55 µM | 5.96 µM | 1.55 µM | 7.11 µM | 4.43 µM | 18.7 µM | 5.37 µM | 23.4 µM | 17.2 µM | 48.2 µM
